{"source": "patent US12338266B2", "about": "(GENETIC S.P.A., priority 2019, dated 2025)", "type_in_all_cases": "in vivo, Balb/c mice", "key": {"[1]": {"tested_on": "mice with OVA-induced allergic asthma", "assay": "Salbutamol-induced relaxation of carbachol pre-contracted bronchi of OVA-sensitized mice (Protocol-1)", "protocol": "(§1) Balb/c mice (8-9 weeks old, Charles River, Calco, Italy) were housed in the animal care facility at the Department of Pharmacy of the University of Naples. […] All animals were allowed to acclimate for four days prior to experiments and were subjected to 12 h light-12 h dark schedule. Each mouse was assigned an identity number and randomtzed to different groups so that all experiments were carried out in a blinded manner. The experimental procedures were approved by the Italian Ministry according to International and National law and policies (EU Directive 2010/63/EU and Italian DL 26/2014 for animal experiments, ARRIVE guidelines and the Basel declaration including the 3R concept). Animal studies are reported in compliance with the ARRIVE guidelines. Balb/c mice is the most widely mouse strain used to study asthma-like features in vivo and to investigate the undedying molecular and cellular mechanisms of allergen sensitization. Mice were treated subcutaneously (s.c.) with 0.4 mL (100 μg) of ovalbumin (OVA) complexed with alum (13 mg mL^−1) (OVA group) at day 0 and 7. Chicken egg-white ovalbumin (OVA: grade V. cat. A5503, Sigma Chemical Co., St. Louis, MO) was dissolved in sterile phosphate buffered saline (PBS) solution (250 μg/1 ml) and Al(OH)3 was added (at 13 mg/ml). This mix was used to induce the allergic sensitization of the animals by subcutaneous injection. OVA was dissolved at 3% in sterile PBS solution and this solution was nebulized (as the immunological challenges). At day 21 mice were exposed to OVA challenge for three days and then sacrificed. […] A group of animals was treated s.c. with saline (vehicle group). […] Animals were killed at selected time points by overdose of enflurane and bronchi and blood collected. Main bronchi were rapidly dissected and cleaned from fat and connective tissue. Rings of 1-2 mm length were cut and mounted in 2.5 mL isolated organ baths containing Krebs solution, at 37° C., oxygenated (95% O2 and 5% CO2), and connected to an isometric force transducer (type 7000. Ugo Basile. Cornerio, Italy) associated to a Powerlab 800 (AD Instruments). Rings were initially stretched until a resting tension of 0.5 g and allowed to equilibrate for at least 30 min. In each experiment bronchial rings were previously challenged with acetylcholine (10^−6 M) until a reproducible response curve was obtained. Subsequently, after tissue washing, a cumulative concentration response curve to carbachol (10^−9-3×10^−6 M) was performed. Results were expressed as dyne/mg tissue. In another set of experiments on bronchi pre-contracted with carbachol and salbutamol-induced relaxation was assessed."}, "[2]": {"tested_on": "mice with OVA-induced allergic asthma", "assay": "Bronchial reactivity to carbachol, isolated bronchi of OVA-sensitized mice (Protocol-1)", "protocol": "as §1, with “Rings of 1-2 mm length were cut and mounted in 2.5 mL isolated organ baths containing Krebs solution, at 37° C., oxygenated (95% O2 and 5% CO2), and connected to an isometric force transducer (type 7000. Ugo Basile. Cornerio, Italy) associated to a Powerlab 800 (AD Instruments). Rings were initially stretched until a resting tension of 0.5 g and allowed to equilibrate for at least 30 min. In each experiment bronchial rings were previously challenged with acetylcholine (10^−6 M) until a reproducible response curve was obtained. Subsequently, after tissue washing, a cumulative concentration response curve to carbachol (10^−9-3×10^−6 M) was performed.” left out"}, "[3]": {"tested_on": "mice with OVA-induced allergic asthma", "assay": "Lung hyperreactivity / Penh by whole body plethysmography (Protocol-2)", "protocol": "(§2) Male Balb/c SPF mice (26*2 g, 6 week-old) were purchased from the animal house facilities at the Faculty of Medicine (University of Sāo Paulo, Brazil). They were group-housed in a temperature-controlled room at 22° C. with a 12/12-hour light/dark cycle and allowed free access to food and water. The study is in agreement with the Ethical Principles for Animal Research established by the Brazilian College for Animal Experimentation (COBEA). According to the internal laboratory rules, euthanasia will be performed if severe distress related to the test agents developed during the experiment. Mice were sensitized with two subcutaneous injections of 0.2 ml of OVA/Al(OH)3, with an interval of 7 days (Sham animals received the Al(OH)3 suspension in PBS with no OVA). Chicken egg-white ovalbumin (OVA; grade V, cat. A5503, Sigma Chemical Co., St. Louis, Mo.) was dissolved in sterile phosphate buffered saline (PBS) solution (50 μg/ml) and Al(OH)3 was added (at 8 mg/ml). This mix was used to induce the allergic sensitization of the animals by subcutaneous injection. OVA was dissolved at 1% in sterile PBS solution and this solution was nebulized (as the immunological challenges). Seven days after the second sensitization (i.e., 3rd week), the animals were nebulized twice a week with the 1% OVA solution (Sham and untreated OVA groups were nebulized with PBS) during 20 minutes for the next 4 weeks. Thirty minutes before the challenges (OVA nebulization) and daily during the next 4 weeks, mice were intra-nasally treated (10 μl/animal as 5 μl/nostril) with the respective compounds/vehicle. […] Animals were killed at selected time points by overdose of enflurane and BAL and blood collected.\nAirway responsiveness in conscious, spontaneously breathing animals was measured at the end of the 6th week (i.e., after 4 weeks OVA challenges+treatments), 24 h after the last OVA/PBS challenge via whole body plethysmography (Buxco Europe Ltd, Winchester, UK). Experiments were carried out in a quiet room by an investigator who was unaware of the nature of treatments. Aerosolized saline (50 μl/mouse during 60 s) and then the muscarinic agonist metacholine (MCh) at increasing concentrations (3.12, 6.25, 12.5 and 25.0 mg/ml in PBS) was nebulized through an inlet of the main chamber for 3 min each to induce bronchoconstriction and readings were taken and averaged for 6 min following each nebulization. After 20 min. the baseline values usually returned at the end of this period. Enhanced pause (Penh) was measured as an indicator of bronchoconstriction and consequent increase of airway resistance as: Penh=[(expiration time/relaxation time)−1][…]."}, "[4]": {"tested_on": "mice with OVA-induced allergic asthma", "assay": "Total and differential leukocyte counts in BAL fluid (Protocol-2)", "protocol": "as §2\nAfter Penh evaluation, the mice were anesthetized with inhaled isofluorane (5% v/v in O2) and blood samples were collected from the descending abdominal aorta. The mice were then euthanized by exsanguination and bronchoalveolar lavage (BAL) was performed by exposing and cannulating the trachea with a polyethylene tube (1 mm outer diameter) connected to a syringe. The lungs were washed by flushing 300 μL of heparin-containing PBS solution (20 UI/mL). The retrieved BAL lavage aliquots were obtained and the same procedure was repeated four additional times. The samples were centrifuged (1000 g for 10 min) and the cell pellet was resuspended in 200 μL of PBS solution, Total cell counts were determined using a Neubauer chamber, and differential counting was carried out in cytospin (Fanem Mod 2400; Sāo Paulo, Brazil) preparations stained with May-Grünwald dye. Leukocytes were classified based on morphological criteria."}, "[5]": {"conditions": "10 nmol/animal/day, comparable with ciclesonide alone at 100 nmol/animal/day"}}, "note": "“Also recorded” adds a separate entry of the source.", "data": [{"smiles": "CC(C)(O)c1ccccc1CCC(SCC1(CC(=O)OCC(=O)[C@@]23O[C@H](C4CCCCC4)O[C@@H]2C[C@H]2[C@@H]4CCC5=CC(=O)C=C[C@]5(C)[C@H]4[C@@H](O)C[C@@]23C)CC1)c1cccc(/C=C/c2ccc3ccc(Cl)cc3n2)c1", "note": "(some centres unmarked) [montelukast desisobutyryl-ciclesonide ester]", "values": [{"measurement": "salbutamol-induced relaxation compared to vehicle", "setting": "[1]; 2 mg/Kg i.p.", "value": "further increase in salbutamol-induced relaxation when compared to vehicle"}, {"measurement": "salbutamol-induced bronchial relaxation", "setting": "[1]; 0.5, 1 and 2 mg/Kg i.p., FIG. 5B", "value": "rescued salbutamol ability to inducing bronchial relaxation at all doses tested"}, {"measurement": "preserving salbutamol induced bronchial relaxation, compared to ciclesonide", "setting": "[1]; ester 2 mg/kg i.p. vs ciclesonide 1 mg/kg", "value": "significant major efficacy in preserving salbutamol induced bronchial relaxation"}, {"measurement": "preserving salbutamol relaxation, ester versus montelukast", "setting": "[1]; ester 2 mg/kg i.p. vs montelukast 1 mg/kg, FIG. 7B", "value": "significantly enhanced"}, {"measurement": "control of bronchial hyper-reactivity (response to carbachol)", "setting": "[2]; 0.5, 1 and 2 mg/Kg i.p. 1 hour before OVA challenge, FIG. 5A", "value": "good control of bronchial hyper-reactivity at all doses tested"}, {"measurement": "control of hyper-reactivity to carbachol, compared to ciclesonide", "setting": "[2]; ester 2 mg/kg i.p. vs ciclesonide 1 mg/kg, FIG. 6A", "value": "major efficacy in the control of the development of hyper-reactivity to carbachol"}, {"measurement": "effect on bronchial hyper-responsiveness, ester versus montelukast", "setting": "[2]; ester 2 mg/kg i.p. vs montelukast 1 mg/kg, FIG. 7A", "value": "comparable"}, {"measurement": "respiratory function at the lowest dose tested", "setting": "[3]; [5]", "value": "significant effects"}, {"measurement": "airway responsiveness, Penh (basal, methacholine Emax and AUC)", "setting": "[3]; 10, 30 and 100 nmol/day/animal intranasal, daily for 4 weeks, FIG. 8A-D", "value": "Significant reduction of this response; also recorded: significantly reduced"}, {"measurement": "inhibition of eosinophil recruitment to the lungs at the lowest dose tested", "setting": "[4]; [5]", "value": "significant effects"}, {"measurement": "BAL eosinophils (OVA-induced increase)", "setting": "[4]; 10, 30 and 100 nmol/animal/day intranasal, 4 weeks, FIG. 10", "value": "did not reach statistical significance; also recorded: lower number of eosinophils"}]}]}
